Experimental data: article PMC9116245, “New 1,2,3-triazole linked ciprofloxacin-chalcones induce DNA damage by inhibiting human topoisomerase I& II and tubulin polymerization” (Journal of Enzyme Inhibition and Medicinal Chemistry, 2022)

Experiments:
Test in all cases: NCI one-dose screen
RPMI-8226 = format: cell-based, human; conditions: RPMI-8226, 10 µM; for activity at 10 µM: Homo sapiens, read-out: Growth Percent
Experimental: (§1) For screening of anticancer properties, all the developed compounds were chosen by the (NCI) for in-vitro antitumor evaluation. The assay was carried out using 59 human cancer cell lines obtained from nine tumour subpanels (breast, ovarian, melanoma, leukaemia, renal, CNS, lung, prostate, and colon cancer cell lines). Compounds were assessed at a 10 µM concentration. […] Also, hybrids 4a, 4b, 4e, 4i and 4j produced significant anti-proliferative effect in several cancer cells, particularly in leukaemia (RPMI-8226) and colon (HCT116) cells with growth percent of 47.87, −14.59, −24.56, −24.42, −15.84, −9.74, −53.36, −10.26, −31.29, and −39.51%, respectively.
(§2) The method description for NCI anticancer screening is provided in detail in the standard NCI-60 testing protocol.

HCT-116 = format: cell-based, human; conditions: HCT-116, 10 µM; for activity at 10 µM: Homo sapiens, read-out: Growth Percent
Experimental: as §1, §2

OVCAR-4 = format: cell-based; conditions: Homo sapiens; OVCAR-4, 10 µM; read-out: Growth Percent
Outline: (§3)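 Standard NCI-60 single-concentration testing: 10 µM, 59 human cancer cell lines, nine tissue-of-origin subpanels; growth percent reported.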

MALME-3M = format: cell-based; conditions: Homo sapiens, read-out: Growth Percent
Outline: as §3

K-562 = format: cell-based; conditions: Homo sapiens, K562; K-562, 10 µM; read-out: Growth Percent
Outline: as §3

SK-OV-3 = format: cell-based; conditions: Homo sapiens; SK-OV-3, 10 µM; read-out: Growth Percent
Outline: as §3

T-47D = format: cell-based; conditions: Homo sapiens, T47D, read-out: Growth Percent
Outline: as §3

BT-549 = format: cell-based; conditions: Homo sapiens; BT-549, 10 µM; read-out: Growth Percent
Outline: as §3

PC-3 = format: cell-based; conditions: Homo sapiens; PC-3, 10 µM; read-out: Growth Percent
Outline: as §3

HL-60(TB) = format: cell-based; conditions: Homo sapiens, read-out: Growth Percent
SNB-19 = format: cell-based; conditions: Homo sapiens; SNB-19, 10 µM; read-out: Growth Percent
Outline: as §3

786-0 = format: cell-based; conditions: Homo sapiens; 786-0, 10 µM; read-out: Growth Percent
Outline: as §3

MDA-MB-231/ATCC = format: cell-based; conditions: Homo sapiens, read-out: Growth Percent
Outline: as §3

HS 578T = format: cell-based; conditions: Homo sapiens, read-out: Growth Percent
Outline: as §3

HOP-92 = format: cell-based; conditions: Homo sapiens; HOP-92, 10 µM; read-out: Growth Percent
Outline: as §3

SK-MEL-2 = format: cell-based; conditions: Homo sapiens; SK-MEL-2, 10 µM; read-out: Growth Percent
Outline: as §3

SK-MEL-5 = format: cell-based; conditions: Homo sapiens; SK-MEL-5, 10 µM; read-out: Growth Percent
Outline: as §3

COLO 205 = format: cell-based; conditions: Homo sapiens; COLO 205, 10 µM; read-out: Growth Percent
Outline: as §3

CAKI-1 = format: cell-based; conditions: Homo sapiens; CAKI-1, 10 µM; read-out: Growth Percent
Outline: as §3

HOP-62 = format: cell-based; conditions: Homo sapiens; HOP-62, 10 µM; read-out: Growth Percent
Outline: as §3

IGROV1 = format: cell-based; conditions: Homo sapiens, IGROV-1; IGROV1, 10 µM; read-out: Growth Percent
Outline: as §3

UACC-62 = format: cell-based; conditions: Homo sapiens; UACC-62, 10 µM; read-out: Growth Percent
Outline: as §3

RXF 393 = format: cell-based; conditions: Homo sapiens; RXF 393, 10 µM; read-out: Growth Percent
Outline: as §3

TK-10 = format: cell-based; conditions: Homo sapiens; TK-10, 10 µM; read-out: Growth Percent
Outline: as §3

NCI/ADR-RES = format: cell-based; conditions: Homo sapiens, read-out: Growth Percent
Outline: as §3

UO-31 = format: cell-based; conditions: Homo sapiens; UO-31, 10 µM; read-out: Growth Percent
Outline: as §3

OVCAR-5 = format: cell-based; conditions: Homo sapiens; OVCAR-5, 10 µM; read-out: Growth Percent
Outline: as §3

## O=C(/C=C/c1ccc(F)cc1)c1ccc(-n2cc(CN3CCN(c4cc5c(cc4F)c(=O)c(C(=O)O)cn5C4CC4)CC3)nn2)cc1 [Compound 4e, (E)-1-cyclopropyl-6-fluoro-7–(4-((1–(4-(3-(4-fluorophenyl)acryloyl)phenyl)-1H-1,2,3-triazol-4-yl)methyl)piperazin-1-yl)-4-oxo-1,4-dihydroquinoline-3-carboxylic acid]
RPMI-8226
  activity at 10 µM: -24.6%
  Growth Percent: -24.56%
HCT-116
  Growth Percent: -10.26%
  activity at 10 µM: -10.3%
OVCAR-4
  activity at 10 µM: 93.1%
MALME-3M
  activity at 10 µM: 89.2%
K-562
  activity at 10 µM: 21.9%
SK-OV-3
  activity at 10 µM: 71.6%
T-47D
  activity at 10 µM: 76.8%
BT-549
  activity at 10 µM: 32%
PC-3
  activity at 10 µM: 57.4%
HL-60(TB)
  activity at 10 µM: 84.6%
SNB-19
  activity at 10 µM: 31.6%
786-0
  activity at 10 µM: 33.2%
MDA-MB-231/ATCC
  activity at 10 µM: 65.3%
HS 578T
  activity at 10 µM: 57.5%
HOP-92
  activity at 10 µM: 50.3%
SK-MEL-2
  activity at 10 µM: 89%
SK-MEL-5
  activity at 10 µM: 79%
COLO 205
  activity at 10 µM: 105%
CAKI-1
  activity at 10 µM: 36.9%
HOP-62
  activity at 10 µM: 67.3%
IGROV1
  activity at 10 µM: 39.6%
UACC-62
  activity at 10 µM: 55.8%
RXF 393
  activity at 10 µM: 45%
TK-10
  activity at 10 µM: 85.2%
NCI/ADR-RES
  activity at 10 µM: 92.1%
UO-31
  activity at 10 µM: 62.8%
OVCAR-5
  activity at 10 µM: 84.2%

## COc1cc(/C=C/C(=O)c2ccc(-n3cc(CN4CCN(c5cc6c(cc5F)c(=O)c(C(=O)O)cn6C5CC5)CC4)nn3)cc2)cc(OC)c1OC [Compound 4j, (E)-1-cyclopropyl-6-fluoro-4-oxo-7–(4-((1–(4-(3-(3,4,5-trimethoxyphenyl)acryloyl)phenyl)-1H-1,2,3-triazol-4-yl)methyl)piperazin-1-yl)-1,4-dihydroquinoline-3-carboxylic acid]
RPMI-8226
  activity at 10 µM: -15.8%
  Growth Percent: -15.84%
HCT-116
  Growth Percent: -39.51%
  activity at 10 µM: -39.5%
OVCAR-4
  activity at 10 µM: 73.7%
MALME-3M
  activity at 10 µM: 57.5%
K-562
  activity at 10 µM: 7.81%
SK-OV-3
  activity at 10 µM: 67.5%
T-47D
  activity at 10 µM: 28.1%
BT-549
  activity at 10 µM: 51%
PC-3
  activity at 10 µM: 9.95%
HL-60(TB)
  activity at 10 µM: 45%
SNB-19
  activity at 10 µM: 44.7%
786-0
  activity at 10 µM: 43.6%
MDA-MB-231/ATCC
  activity at 10 µM: 55.4%
HS 578T
  activity at 10 µM: 21.5%
HOP-92
  activity at 10 µM: 81.6%
SK-MEL-2
  activity at 10 µM: 97.4%
SK-MEL-5
  activity at 10 µM: 50.9%
COLO 205
  activity at 10 µM: 60.9%
CAKI-1
  activity at 10 µM: 60%
HOP-62
  activity at 10 µM: 38.7%
IGROV1
  activity at 10 µM: -24.8%
UACC-62
  activity at 10 µM: 54.1%
RXF 393
  activity at 10 µM: 4.51%
TK-10
  activity at 10 µM: 80%
NCI/ADR-RES
  activity at 10 µM: 82%
UO-31
  activity at 10 µM: 43.5%
OVCAR-5
  activity at 10 µM: 72.3%
